Experimental data published in PubChem BioAssay AID248 (DTP/NCI, 2004).
Toxic doses and inconclusive results are not listed. Rule as the data show it: active = T/C of 150% or more; inactive = T/C below 125%.

Test system: L1210 leukemia ip in BDF1 mice, survival T/C
Experiment: NCI In Vivo Anticancer Drug Screen. Data for tumor model L1210 Leukemia (intraperitoneal) in B6D2F1 (BDF1) mice
Settings: endpoint: mean survival time, higher = longer survival
Method in brief: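 Value reflects the ratio of survival in compound-treated mice to survival in vehicle-treated controls, with both groups carrying the same transplanted tumor.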

[1] = dose: 100.0 mg/kg/injection, schedule: Q04DX002 (ip), vehicle: Klucel (hydroxypropylcellulose) (HPC)
[2] = dose: 200.0 mg/kg/injection, schedule: Q04DX002 (ip), vehicle: Klucel (hydroxypropylcellulose) (HPC)
[3] = dose: 400.0 mg/kg/injection, schedule: Q04DX002 (ip), vehicle: Klucel (hydroxypropylcellulose) (HPC)
[4] = dose: 75.0 mg/kg/injection, schedule: Q01DX001 (ip), vehicle: saline
[5] = dose: 100.0 mg/kg/injection, schedule: Q01DX009 (ip), vehicle: saline with Tween-80
[6] = dose: 100.0 mg/kg/injection, schedule: Q01DX009 (ip), vehicle: Klucel (hydroxypropylcellulose) (HPC)
[7] = dose: 200.0 mg/kg/injection, schedule: Q01DX009 (ip), vehicle: Klucel (hydroxypropylcellulose) (HPC)
[8] = dose: 100.0 mg/kg/injection, schedule: Q01DX001 (ip), vehicle: Klucel (hydroxypropylcellulose) (HPC)
[9] = dose: 200.0 mg/kg/injection, schedule: Q01DX001 (ip), vehicle: Klucel (hydroxypropylcellulose) (HPC)
[10] = dose: 400.0 mg/kg/injection, schedule: Q01DX001 (ip), vehicle: Klucel (hydroxypropylcellulose) (HPC)
[11] = dose: 400.0 mg/kg/injection, schedule: Q01DX009 (ip), vehicle: Klucel (hydroxypropylcellulose) (HPC)
[12] = dose: 25.0 mg/kg/injection, schedule: Q04DX003 (ip), vehicle: Klucel (hydroxypropylcellulose) (HPC)
[13] = dose: 50.0 mg/kg/injection, schedule: Q04DX003 (ip), vehicle: Klucel (hydroxypropylcellulose) (HPC)

Measured: T/C

Nc1nc(N)c(N=O)c(Nc2ccc(Cl)c(Cl)c2)n1
inactive: dose: 3.12 mg/kg/injection, schedule: Q01DX Z (ip), vehicle: carboxymethylcellulose (CMC) 117 % of control | dose: 6.25 mg/kg/injection, schedule: Q01DX Z (ip), vehicle: carboxymethylcellulose (CMC) 104 % of control | dose: 12.5 mg/kg/injection, schedule: Q01DX Z (ip), vehicle: carboxymethylcellulose (CMC) 106 % of control | dose: 25.0 mg/kg/injection, schedule: Q01DX Z (ip), vehicle: carboxymethylcellulose (CMC) 109 % of control | dose: 100.0 mg/kg/injection, schedule: Q01DX Z (ip), vehicle: carboxymethylcellulose (CMC) 89 % of control | dose: 400.0 mg/kg/injection, schedule: Q01DX Z (ip), vehicle: carboxymethylcellulose (CMC) 86 % of control

CC(C)(C)CNC(=S)Nc1ccccc1
inactive: dose: 9.5 mg/kg/injection, schedule: Q01DX001 (ip), vehicle: other 98 % of control | dose: 19.0 mg/kg/injection, schedule: Q01DX001 (ip), vehicle: other 102 % of control | dose: 38.0 mg/kg/injection, schedule: Q01DX001 (ip), vehicle: other 104 % of control | dose: 75.0 mg/kg/injection, schedule: Q01DX001 (ip), vehicle: other 90 % of control

NC(Cc1ccccc1)C(=O)NCCCl (configuration not stated)
inactive: dose: 10.0 mg/kg/injection, schedule: Q01DX Z (ip), vehicle: saline 86 % of control | dose: 30.0 mg/kg/injection, schedule: Q01DX Z (ip), vehicle: saline 93 % of control | dose: 300.0 mg/kg/injection, schedule: Q01DX Z (ip), vehicle: saline 96 % of control

CCC(=O)Nc1ccccc1C
inactive: [1] 92 % of control | [2] 103 % of control | [3] 110 % of control

CC(=O)Nc1ncnc2c1c(C(N)=O)cn2C1OC(COC(C)=O)C(OC(C)=O)C1OC(C)=O (configuration not stated)
inactive: dose: 100.0 mg/kg/injection, schedule: Q01DX001 (ip), vehicle: water 102 % of control

CCOCC1COC(c2ccc3c(c2)OCO3)O1 (configuration not stated)
inactive: dose: 222.0 mg/kg/injection, schedule: Q01DX Z (ip), vehicle: methylcellulose (MC) 102 % of control | dose: 333.0 mg/kg/injection, schedule: Q01DX Z (ip), vehicle: methylcellulose (MC) 104 % of control | dose: 500.0 mg/kg/injection, schedule: Q01DX Z (ip), vehicle: methylcellulose (MC) 102 % of control

CC(C)OP(=O)(OC=C(Cl)Cl)OC(C)C
inactive: [4] 93 % of control | dose: 150.0 mg/kg/injection, schedule: Q01DX001 (ip), vehicle: saline 91 % of control

COc1ccc(NC(=O)Nc2ccc(F)c([N+](=O)[O-])c2)c(Cl)c1
inactive: dose: 25.0 mg/kg/injection, schedule: Q01DX009 (ip), vehicle: saline with Tween-80 95 % of control | dose: 50.0 mg/kg/injection, schedule: Q01DX009 (ip), vehicle: saline with Tween-80 100 % of control | [5] 96 % of control

O=c1ccc2c([nH]1)CCCCC2
inactive: dose: 100.0 mg/kg/injection, schedule: Q04DX003 (ip), vehicle: Klucel (hydroxypropylcellulose) (HPC) 106 % of control | dose: 200.0 mg/kg/injection, schedule: Q04DX003 (ip), vehicle: Klucel (hydroxypropylcellulose) (HPC) 100 % of control | dose: 400.0 mg/kg/injection, schedule: Q04DX003 (ip), vehicle: Klucel (hydroxypropylcellulose) (HPC) 95 % of control

O=S(=O)(O)c1cccc2nsnc12
inactive: [6] 107 % of control | [7] 109 % of control

NCCCCC(N)C(=O)O (configuration not stated)
inactive: [8] 115 % of control | dose: 100.0 mg/kg/injection, schedule: Q01DX001 (ip), vehicle: saline 94 % of control | [9] 100 % of control | dose: 200.0 mg/kg/injection, schedule: Q01DX001 (ip), vehicle: saline 97 % of control | [10] 86 % of control | dose: 400.0 mg/kg/injection, schedule: Q01DX001 (ip), vehicle: saline 94 % of control

O=C(c1ccccc1)c1ccco1
inactive: dose: 50.0 mg/kg/injection, schedule: Q01DX009 (ip), vehicle: saline 102 % of control | dose: 100.0 mg/kg/injection, schedule: Q01DX009 (ip), vehicle: saline 91 % of control | dose: 200.0 mg/kg/injection, schedule: Q01DX009 (ip), vehicle: saline 93 % of control

N#CCCN1c2ccccc2Sc2ccc(Cl)cc21
inactive: [6] 96 % of control | [7] 101 % of control | [11] 98 % of control

Cc1cccc(N2C(N)=NC(N)=NC2(C)C)c1
inactive: [12] 103 % of control | [13] 124 % of control | [4] 101 % of control

CCCC#CC(=O)OCCCCC
inactive: dose: 100.0 mg/kg/injection, schedule: Q04DX002 (ip), vehicle: saline 108 % of control | dose: 200.0 mg/kg/injection, schedule: Q04DX002 (ip), vehicle: saline 94 % of control | dose: 400.0 mg/kg/injection, schedule: Q04DX002 (ip), vehicle: saline 105 % of control

CCSC(=O)Nc1cccc(O)c1
inactive: dose: 100.0 mg/kg/injection, schedule: Q01DX001 (ip), vehicle: saline + alcohol 94 % of control | dose: 200.0 mg/kg/injection, schedule: Q01DX001 (ip), vehicle: saline + alcohol 94 % of control | dose: 400.0 mg/kg/injection, schedule: Q01DX001 (ip), vehicle: saline + alcohol 93 % of control

COc1c(-c2cc(C)nc(NC#N)n2)c(O)cc2occc12
inactive: [1] 95 % of control | [2] 95 % of control | [3] 98 % of control

O=S1(=O)CCCCC1=C(c1ccccc1)c1ccccc1
inactive: dose: 100.0 mg/kg/injection, schedule: Q04DX002 (ip), vehicle: saline with Tween-80 89 % of control | dose: 200.0 mg/kg/injection, schedule: Q04DX002 (ip), vehicle: saline with Tween-80 89 % of control

COC(=O)c1cc([N+](=O)[O-])cc([N+](=O)[O-])c1Br
inactive: dose: 3.0 mg/kg/injection, schedule: Q01DX009 (ip), vehicle: saline with Tween-80 100 % of control | dose: 6.0 mg/kg/injection, schedule: Q01DX009 (ip), vehicle: saline with Tween-80 98 % of control | dose: 12.0 mg/kg/injection, schedule: Q01DX009 (ip), vehicle: saline with Tween-80 98 % of control | dose: 12.5 mg/kg/injection, schedule: Q01DX009 (ip), vehicle: Klucel (hydroxypropylcellulose) (HPC) 96 % of control | dose: 12.5 mg/kg/injection, schedule: Q04DX003 (ip), vehicle: Klucel (hydroxypropylcellulose) (HPC) 100 % of control | dose: 25.0 mg/kg/injection, schedule: Q01DX009 (ip), vehicle: Klucel (hydroxypropylcellulose) (HPC) 89 % of control | [12] 94 % of control | [13] 94 % of control

CNC(=O)NNC(=O)CNC(=O)Nc1ccc(Cl)c(Cl)c1
inactive: [6] 106 % of control | [7] 93 % of control | [11] 97 % of control

O=C=Nc1cccc2c(N=C=O)cccc12
inactive: [5] 91 % of control

CC1=CC(=O)NP(=O)(OC2CCCCC2)N1 (configuration not stated)
inactive: dose: 100.0 mg/kg/injection, schedule: Q01DX005 (ip), vehicle: sodium bicarbonate 91 % of control

NCCc1cc(O)c(O)c(S(=O)(=O)c2ccccc2)c1
inactive: dose: 87.5 mg/kg/injection, schedule: Q01DX009 (ip), vehicle: saline 96 % of control | dose: 175.0 mg/kg/injection, schedule: Q01DX009 (ip), vehicle: saline 94 % of control | dose: 350.0 mg/kg/injection, schedule: Q01DX009 (ip), vehicle: saline 115 % of control

CCOC(=O)c1[nH]c(=O)nc(N)c1Oc1ccccc1
inactive: dose: 50.0 mg/kg/injection, schedule: Q01DX001 (ip), vehicle: Klucel (hydroxypropylcellulose) (HPC) 98 % of control | [8] 92 % of control | [9] 93 % of control

O=C(OC1CCC2CC21)c1ccc([N+](=O)[O-])cc1[N+](=O)[O-] (configuration not stated)
inactive: [8] 98 % of control | [9] 95 % of control | [10] 106 % of control

NC(=S)N/N=C/c1c(Cl)n(-c2ccccc2)c2ccccc12
inactive: dose: 50.0 mg/kg/injection, schedule: Q04DX002 (ip), vehicle: Klucel (hydroxypropylcellulose) (HPC) 87 % of control | [1] 87 % of control | [2] 93 % of control

CCCCCCCCCC(=O)c1ccccc1
inactive: [1] 96 % of control | [2] 103 % of control | [3] 100 % of control

Cc1ccc(S(=O)(=O)N/N=C2/C(=N/NS(=O)(=O)c3ccc(C)cc3)c3cccc4cccc2c34)cc1
inactive: dose: 75.0 mg/kg/injection, schedule: Q01DX001 (ip), vehicle: carboxymethylcellulose (CMC) 91 % of control | dose: 150.0 mg/kg/injection, schedule: Q01DX001 (ip), vehicle: carboxymethylcellulose (CMC) 91 % of control | dose: 300.0 mg/kg/injection, schedule: Q01DX001 (ip), vehicle: carboxymethylcellulose (CMC) 88 % of control
